Measurements from US11053204B2, “Pyrimidinyloxy benzene derivatives as herbicides” (FMC Corporation, priority 2015, dated 2021).

Key:
Assay type in all cases: in vivo
[1] = test system: sedge, umbrella (small-flower umbrella sedge, Cyperus difformis); test: Test B flooded paddy test, plant response rating; conditions: 250 g ai/ha; Flood; scale of 0 to 100 where 0 is no effect and 100 is complete control; 13 to 15 days
In short: (§1)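 Under a constant 3 cm flood, test compounds went directly into the paddy water. Following 13 to 15 days of greenhouse growth, treated species and controls were compared by eye.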

[2] = test system: barnyardgrass (Echinochloa crus-galli); test: Test B flooded paddy test, plant response rating; conditions: 250 g ai/ha; Flood; scale of 0 to 100 where 0 is no effect and 100 is complete control; 13 to 15 days
In short: as §1

[3] = test system: ducksalad (Heteranthera limosa); test: Test B flooded paddy test, plant response rating; conditions: 250 g ai/ha; Flood; scale of 0 to 100 where 0 is no effect and 100 is complete control; 13 to 15 days
In short: as §1

rice (Oryza sativa) = test: Test B flooded paddy test, plant response rating; conditions: 250 g ai/ha; Flood; scale of 0 to 100 where 0 is no effect and 100 is complete control; 13 to 15 days
In short: as §1

[4] = test system: barnyardgrass (Echinochloa crus-galli); test: Test A preemergence, visual injury rating
In short: (§2)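 Visual injury scored 0–100 (100 = complete control) against untreated controls about 10 days after treatment in a greenhouse. Test chemicals, formulated with surfactant in non-phytotoxic solvent, were sprayed on soil preemergence or on 2-10 cm, one- to two-leaf plants postemergence.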

[5] = test system: Italian ryegrass (Lolium multiflorum); test: Test A preemergence, visual injury rating
In short: as §2

[6] = test system: pigweed (Amaranthus retroflexus); test: Test A preemergence, visual injury rating
In short: as §2

[7] = test system: ragweed (common ragweed, Ambrosia elatior); test: Test A preemergence, visual injury rating
In short: as §2

[8] = test system: giant foxtail (Setaria faberii); test: Test A preemergence, visual injury rating
In short: as §2

kochia (Kochia scoparia) [9] = test: Test A preemergence, visual injury rating
In short: as §2

[10] = test system: barnyardgrass (Echinochloa crus-galli); test: Test A postemergence, visual injury rating; conditions: 0 is no effect, 100 is complete control; for Barnyardgrass plant response rating: 0 to 100 scale, approximately 10 days
In short: as §2

[11] = test system: galium (catchweed bedstraw, Galium aparine); test: Test A postemergence, visual injury rating; conditions: 0 is no effect, 100 is complete control; for Galium plant response rating: 0 to 100 scale, approximately 10 days
In short: as §2

corn (Zea mays) = test: Test A postemergence, visual injury rating; conditions: 0 is no effect, 100 is complete control; for Corn plant response rating: 0 to 100 scale, approximately 10 days
In short: as §2

[12] = test system: Italian ryegrass (Lolium multiflorum); test: Test A postemergence, visual injury rating; conditions: 0 is no effect, 100 is complete control; for Ryegrass, Italian plant response rating: 0 to 100 scale, approximately 10 days
In short: as §2

[13] = test system: pigweed (Amaranthus retroflexus); test: Test A postemergence, visual injury rating; conditions: 0 is no effect, 100 is complete control; for Pigweed plant response rating: 0 to 100 scale, approximately 10 days
In short: as §2

[14] = test system: wheat (Triticum aestivum); test: Test A postemergence, visual injury rating; conditions: 0 is no effect, 100 is complete control; for Wheat plant response rating: 0 to 100 scale, approximately 10 days
In short: as §2

[15] = test system: ragweed (common ragweed, Ambrosia elatior); test: Test A postemergence, visual injury rating; conditions: 0 is no effect, 100 is complete control; for Ragweed plant response rating: 0 to 100 scale, approximately 10 days
In short: as §2

[16] = test system: giant foxtail (Setaria faberii); test: Test A postemergence, visual injury rating; conditions: 0 is no effect, 100 is complete control; for Foxtail, Giant plant response rating: 0 to 100 scale, approximately 10 days
In short: as §2

kochia (Kochia scoparia) [17] = test: Test A postemergence, visual injury rating; conditions: 0 is no effect, 100 is complete control; for Kochia plant response rating: 0 to 100 scale, approximately 10 days
In short: as §2

[18] = test system: blackgrass (Alopecurus myosuroides); test: Test A postemergence, visual injury rating; conditions: 0 is no effect, 100 is complete control; for Blackgrass plant response rating: 0 to 100 scale, approximately 10 days
In short: as §2

[19] = 31 g ai/ha, 0 to 100 scale, 0 no effect, 100 complete control
[20] = 125 g ai/ha, 0 to 100 scale (0 no effect, 100 complete control)
[21] = 1000 g ai/ha, 0 to 100 scale (0 no effect, 100 complete control)

SMILES | Plant response rating, Sedge, Umbrella [1] | Plant response rating, Barnyardgrass [2] | Plant response rating, Ducksalad [3] | Plant response rating, Rice (rice (Oryza sativa)) | Plant response rating, Barnyardgrass [4, 19] | Plant response rating, Ryegrass, Italian [5, 19] | Plant response rating, Pigweed [6, 19] | Plant response rating, Ragweed [7, 19] | Plant response rating, Foxtail, Giant [8, 19] | Plant response rating, Kochia (kochia (Kochia scoparia) [9]; [19]) | Barnyardgrass plant response rating ([10]; 31 g ai/ha) | Galium plant response rating ([11]; 31 g ai/ha) | Corn plant response rating (corn (Zea mays); 31 g ai/ha) | Ryegrass, Italian plant response rating ([12]; 31 g ai/ha) | Ryegrass, Italian plant response rating ([12]; 125 g ai/ha) | Pigweed plant response rating ([13]; 31 g ai/ha) | Pigweed plant response rating ([13]; 125 g ai/ha) | Wheat plant response rating ([14]; 31 g ai/ha) | Wheat plant response rating ([14]; 125 g ai/ha) | Ragweed plant response rating ([15]; 31 g ai/ha) | other results
CCCCOC(=O)c1c(Br)cccc1Oc1ncc(Cl)cn1 [Compound 100] | 70 | 40 | 90 | 0 | 40 | 0 | 0 | 0 | 50 | 0 | 10 | 20 | 10 | 0 | 20 | 30 | 70 | 0 | 0 | 0 | Barnyardgrass plant response rating [4, 20]: 100; Plant response rating, Ryegrass, Italian [5, 20]: 0; Plant response rating, Pigweed [6, 20]: 60; Plant response rating, Ragweed [7, 20]: 0; Plant response rating, Foxtail, Giant [8, 20]: 100; Plant response rating, Kochia (kochia (Kochia scoparia) [9]; [20]): 0; Barnyardgrass plant response rating ([10]; 125 g ai/ha): 50; Galium plant response rating ([11]; 125 g ai/ha): 70; Corn plant response rating (corn (Zea mays); 125 g ai/ha): 10; Ragweed plant response rating ([15]; 125 g ai/ha): 0; Foxtail, Giant plant response rating ([16]; 31 g ai/ha): 20; Foxtail, Giant plant response rating ([16]; 125 g ai/ha): 70; Kochia plant response rating (kochia (Kochia scoparia) [17]; 31 g ai/ha): 60; Kochia plant response rating (kochia (Kochia scoparia) [17]; 125 g ai/ha): 80; Blackgrass plant response rating ([18]; 31 g ai/ha): 0; Blackgrass plant response rating ([18]; 125 g ai/ha): 40
FC(F)(F)CCCOCc1c(Br)cccc1Oc1ncc(Cl)cn1 [Compound 74] | 100 | 40 | 100 | 0 | 10 | 0 | 20 | 0 | 40 | 0 | 10 | 20 | 10 | 0 | 20 | 60 | 100 | 0 | 10 | 0 | Barnyardgrass plant response rating [4, 20]: 60; Ryegrass, Italian plant response rating [5, 20]: 20; Pigweed plant response rating [6, 20]: 90; Ragweed plant response rating [7, 20]: 0; Foxtail, Giant plant response rating [8, 20]: 100; Kochia plant response rating (kochia (Kochia scoparia) [9]; [20]): 100; Barnyardgrass plant response rating (0 to 100 scale) ([10]; 125 g ai/ha): 40; Galium plant response rating (0 to 100 scale) ([11]; 125 g ai/ha): 80; Corn plant response rating (0 to 100 scale) (corn (Zea mays); 125 g ai/ha): 20; Ragweed plant response rating ([15]; 125 g ai/ha): 10; Foxtail, Giant plant response rating ([16]; 31 g ai/ha): 20; Foxtail, Giant plant response rating (0 to 100 scale) ([16]; 125 g ai/ha): 70; Kochia plant response rating (kochia (Kochia scoparia) [17]; 31 g ai/ha): 20; Kochia plant response rating (kochia (Kochia scoparia) [17]; 125 g ai/ha): 40; Blackgrass plant response rating ([18]; 31 g ai/ha): 10; Blackgrass plant response rating (0 to 100 scale) ([18]; 125 g ai/ha): 30
CC(=O)c1c(Br)cccc1Oc1ncc(Cl)cn1 [Compound 12] | 0 | 0 | 0 | 0 |  |  |  |  |  |  |  |  |  |  |  |  |  |  |  |  | Barnyardgrass plant response rating [4, 21]: 80; Ryegrass, Italian plant response rating [5, 21]: 40; Pigweed plant response rating [6, 21]: 100; Ragweed plant response rating [7, 21]: 80; Foxtail, Giant plant response rating [8, 21]: 100; Kochia plant response rating (kochia (Kochia scoparia) [9]; [21]): 0; Barnyardgrass plant response rating (0 to 100 scale) ([10]; 1000 g ai/ha): 80; Galium plant response rating (0 to 100 scale) ([11]; 1000 g ai/ha): 80; Corn plant response rating (0 to 100 scale) (corn (Zea mays); 1000 g ai/ha): 20; Ryegrass, Italian plant response rating (0 to 100 scale) ([12]; 1000 g ai/ha): 50; Pigweed plant response rating (0 to 100 scale) ([13]; 1000 g ai/ha): 100; Wheat plant response rating (0 to 100 scale) ([14]; 1000 g ai/ha): 0; Ragweed plant response rating (0 to 100 scale) ([15]; 1000 g ai/ha): 60; Foxtail, Giant plant response rating (0 to 100 scale) ([16]; 1000 g ai/ha): 70; Kochia plant response rating (0 to 100 scale) (kochia (Kochia scoparia) [17]; 1000 g ai/ha): 80; Blackgrass plant response rating (0 to 100 scale) ([18]; 1000 g ai/ha): 50
CCCCC(C#N)c1c(Br)cccc1Oc1ncc(Cl)cn1 (centres unmarked) [Compound 114] | 90 | 0 | 40 | 0 | 0 | 0 | 0 | 20 | 10 | 0 | 0 | 50 | 10 | 0 | 10 | 50 | 100 | 0 | 10 | 0 | Plant response rating, Barnyardgrass [4, 20]: 20; Plant response rating, Ryegrass, Italian [5, 20]: 0; Plant response rating, Pigweed [6, 20]: 30; Plant response rating, Ragweed [7, 20]: 80; Plant response rating, Foxtail, Giant [8, 20]: 90; Plant response rating, Kochia (kochia (Kochia scoparia) [9]; [20]): 10; Barnyardgrass plant response rating ([10]; 125 g ai/ha): 10; Galium plant response rating ([11]; 125 g ai/ha): 80; Corn plant response rating (corn (Zea mays); 125 g ai/ha): 20; Ragweed plant response rating ([15]; 125 g ai/ha): 20; Foxtail, Giant plant response rating ([16]; 31 g ai/ha): 0; Foxtail, Giant plant response rating ([16]; 125 g ai/ha): 20; Kochia plant response rating (kochia (Kochia scoparia) [17]; 31 g ai/ha): 20; Kochia plant response rating (kochia (Kochia scoparia) [17]; 125 g ai/ha): 80; Blackgrass plant response rating ([18]; 31 g ai/ha): 0; Blackgrass plant response rating ([18]; 125 g ai/ha): 10
